# Patent publication US20130078718A1, “CONVERSION OF VASCULAR ENDOTHELIAL CELLS INTO MULTIPOTENT STEM-LIKE CELLS” (PRESIDENT AND FELLOWS OF HARVARD COLLEGE, priority 2010, published 2013)
# System: human cutaneous microvascular endothelial cells (HCMEC)
# Experiment: Differentiation into myocytes, cardiomyocytes and neurons (immunoblotting)
# Type: cell-based
# Conditions: 10 ng/ml, 48 hours, then myogenic, cardiomyogenic or neurogenic medium 14 days
# Experimental: Cardiomyogenic medium was purchased from Millipore Inc., (SCM-102).
# Myogenic medium consisted of human endothelial serum-free medium supplemented with 5% horse serum, 0.1 μM dexamethasone, and 50 μM hydrocortisone (previously described by Gang et al, 2004).
# Neurogenic medium consisted human endothelial serum-free medium supplemented with 100 ng/ml bFGF (previously described by Jiang et al., 2002). Endothelial cells converted into mesenchymal stem-like cells by treatment with 10 ng/ml TGF-β2 for 48 hours were plated on fibronectin-coated polystyrene wells in the neurogenic medium.
substance,measurement,value
"TGF-β2: Recombinant TGF-β2 protein (R&D Systems), ALK2 activating ligand, used at 10 ng/mL","expression of MyoD1, cardiac troponin I or neurofilament-L (immunoblotting)",did express these markers
